# According to patent publication US4291021A, “Novel macrolide antibiotics and preparation thereof” (Toyo Jozo Company, Ltd., priority 1978, dated 1981):
# Legend:
# Mycoplasma synoviae = experiment: anti-mycoplasmal spectrum, agar dilution method; format: cell-based; conditions: 10^8 x1
# [1] = tested on: Klebsiella pneumoniae (ATCC 10031); experiment: antibacterial spectrum, agar dilution method; format: cell-based; conditions: 10^8 x1
# [2] = tested on: Salmonella typhosa (E 901); experiment: antibacterial spectrum, agar dilution method; format: cell-based; conditions: 10^8 x1
# [3] = tested on: Sarcina lutea (ATCC 9341); experiment: antibacterial spectrum, agar dilution method; format: cell-based; conditions: 10^8 x1
# [4] = tested on: Staphylococcus aureus (MS 353 AO); experiment: antibacterial spectrum, agar dilution method; format: cell-based; conditions: S. aureus MS 353 AO, 10^8 x1
# acidic or basic nature = format: physicochemical
# Proteus vulgaris (OX19) = experiment: antibacterial spectrum, agar dilution method; format: cell-based; conditions: 10^8 x1
# [5] = tested on: Staphylococcus aureus (MS 353); experiment: antibacterial spectrum, agar dilution method; format: cell-based; conditions: S. aureus MS 353, 10^8 x1
# [6] = tested on: Staphylococcus aureus (0116); experiment: antibacterial spectrum, agar dilution method; format: cell-based; conditions: S. aureus 0116, 10^8 x1
# Shigella sonney (E 33) = experiment: antibacterial spectrum, agar dilution method; format: cell-based; conditions: 10^8 x1
# solubility = format: physicochemical
# [7] = tested on: Pseudomonas aeruginosa (IAM 1095); experiment: antibacterial spectrum, agar dilution method; format: cell-based; conditions: 10^8 x1
# [8] = tested on: Staphylococcus aureus (0127); experiment: antibacterial spectrum, agar dilution method; format: cell-based; conditions: S. aureus 0127, 10^8 x1
# [9] = tested on: Streptococcus faecalis (1501); experiment: antibacterial spectrum, agar dilution method; format: cell-based; conditions: S. faecalis 1501, 10^8 x1
# Escherichia coli (B) = experiment: antibacterial spectrum, agar dilution method; format: cell-based; conditions: E. coli B, 10^8 x1
# [10] = tested on: Micrococcus flavus (ATCC 10240); experiment: antibacterial spectrum, agar dilution method; format: cell-based; conditions: 10^8 x1
# [11] = tested on: Corynebacterium diphtheriae (P.W.8); experiment: antibacterial spectrum, agar dilution method; format: cell-based; conditions: 10^8 x1
# [12] = tested on: Staphylococcus epidermidis (s.p.-al-l); experiment: antibacterial spectrum, agar dilution method; format: cell-based; conditions: 10^8 x1
# [13] = tested on: Staphylococcus aureus (MS 353 C36); experiment: antibacterial spectrum, agar dilution method; format: cell-based; conditions: S. aureus MS 353 C36, 10^8 x1
# [14] = tested on: Staphylococcus aureus (0119); experiment: antibacterial spectrum, agar dilution method; format: cell-based; conditions: S. aureus 0119, 10^8 x1
# [15] = tested on: Staphylococcus aureus (ATCC 6538 P); experiment: antibacterial spectrum, agar dilution method; format: cell-based; conditions: S. aureus ATCC 6538 P, 10^8 x1
# [16] = tested on: Streptococcus agalactiae (1020); experiment: antibacterial spectrum, agar dilution method; format: cell-based; conditions: S. agalactiae 1020, 10^8 x1
# [17] = tested on: Streptococcus pyogenes (N.Y.5); experiment: antibacterial spectrum, agar dilution method; format: cell-based; conditions: S. pyogenes N.Y.5, 10^8 x1
# [18] = tested on: Shigella flexneri type 3a; experiment: antibacterial spectrum, agar dilution method; format: cell-based; conditions: 10^8 x1
# [19] = tested on: Escherichia coli (NIHJ-JC2); experiment: antibacterial spectrum, agar dilution method; format: cell-based; conditions: E. coli NIHJ-JC2, 10^8 x1
# [20] = tested on: Salmonella enteritidis gertner; experiment: antibacterial spectrum, agar dilution method; format: cell-based; conditions: 10^8 x1
# [21] = tested on: Streptococcus pyogenes (1022); experiment: antibacterial spectrum, agar dilution method; format: cell-based; conditions: S. pyogenes 1022, 10^8 x1
# Serratia marcescence = experiment: antibacterial spectrum, agar dilution method; format: cell-based; conditions: 10^8 x1
# Mycoplasma gallisepticum = experiment: anti-mycoplasmal spectrum, agar dilution method; format: cell-based; conditions: 10^8 x1
# [22] = tested on: Bacillus subtilis (ATCC 6633); experiment: antibacterial spectrum, agar dilution method; format: cell-based; conditions: 10^8 x1
Compound,Minimum growth inhibitory concentration (Mycoplasma synoviae),Minimum growth inhibitory concentration [1],Minimum growth inhibitory concentration [2],Minimum growth inhibitory concentration [3],Minimum growth inhibitory concentration [4],Acidic or basic nature (acidic or basic nature),Minimum growth inhibitory concentration (Proteus vulgaris (OX19)),Minimum growth inhibitory concentration [5],Minimum growth inhibitory concentration [6],Minimum growth inhibitory concentration (Shigella sonney (E 33)),Minimum growth inhibitory concentration [7],Minimum growth inhibitory concentration [8],Minimum growth inhibitory concentration [9],Minimum growth inhibitory concentration (Escherichia coli (B)),Minimum growth inhibitory concentration [10],Minimum growth inhibitory concentration [11],Minimum growth inhibitory concentration [12],Minimum growth inhibitory concentration [13],Minimum growth inhibitory concentration [14],Minimum growth inhibitory concentration [15],further results
CC[C@H]1OC(=O)/C=C/[C@H](C)[C@@H](O[C@@H]2O[C@H](C)C[C@H](N(C)C)[C@H]2O)[C@@H](C)C[C@@H](C)C(=O)/C=C/[C@@H]2O[C@H]2[C@]1(O)CO[C@@H]1O[C@H](C)[C@@H](O)[C@@H](OC)[C@H]1OC [A 11725 II],0.8 µg/mL,25 µg/mL,> 100 µg/mL,≤ 0.05 µg/mL,> 100 µg/mL,Basic,50 µg/mL,0.2 µg/mL,> 100 µg/mL,> 100 µg/mL,> 100 µg/mL,> 100 µg/mL,> 100 µg/mL,25 µg/mL,0.2 µg/mL,0.4 µg/mL,0.1 µg/mL,0.1 µg/mL,> 100 µg/mL,0.2 µg/mL,Solubility compared with A 11725 I (solubility; similar to A 11725 I): Similar; Minimum growth inhibitory concentration [16]: 6.3 µg/mL; Minimum growth inhibitory concentration [17]: ≤ 0.05 µg/mL; Minimum growth inhibitory concentration [18]: 50 µg/mL; Minimum growth inhibitory concentration [19]: > 100 µg/mL; Minimum growth inhibitory concentration [20]: > 100 µg/mL; Minimum growth inhibitory concentration [21]: > 100 µg/mL; Minimum growth inhibitory concentration (Serratia marcescence): > 100 µg/mL; Minimum growth inhibitory concentration (Mycoplasma gallisepticum): 0.03 µg/mL; Minimum growth inhibitory concentration [22]: 0.4 µg/mL
CC[C@H]1OC(=O)/C=C/[C@H](C)[C@@H](O[C@@H]2O[C@H](C)C[C@H](N(C)C)[C@H]2O)[C@@H](C)C[C@@H](C)C(=O)/C=C/C2OC2[C@@H]1CO[C@@H]1O[C@H](C)[C@@H](O)[C@@H](OC)[C@H]1OC (stereo partly drawn) [A 11725 I],0.03 µg/mL,25 µg/mL,> 100 µg/mL,≤ 0.05 µg/mL,> 100 µg/mL,Basic,100 µg/mL,0.2 µg/mL,> 100 µg/mL,> 100 µg/mL,> 100 µg/mL,> 100 µg/mL,> 100 µg/mL,100 µg/mL,≤ 0.05 µg/mL,0.4 µg/mL,0.1 µg/mL,≤ 0.05 µg/mL,> 100 µg/mL,0.2 µg/mL,"Solubility in acidic water and organic solvents (solubility; acidic water, methanol, acetone, ethyl acetate, benzene): Soluble; Minimum growth inhibitory concentration [16]: 12.5 µg/mL; Minimum growth inhibitory concentration [17]: ≤ 0.05 µg/mL; Minimum growth inhibitory concentration [18]: 100 µg/mL; Minimum growth inhibitory concentration [19]: > 100 µg/mL; Minimum growth inhibitory concentration [20]: > 100 µg/mL; Minimum growth inhibitory concentration [21]: > 100 µg/mL; Minimum growth inhibitory concentration (Serratia marcescence): > 100 µg/mL; Minimum growth inhibitory concentration (Mycoplasma gallisepticum): 0.006 µg/mL; Minimum growth inhibitory concentration [22]: 0.4 µg/mL"
